Key:
[1] = target: NAMPT (human, recombinant, C-terminally His-tagged) (Homo sapiens, UniProt P43490); test: Time-Resolved Fluorescence Resonance Energy Transfer (TR-FRET) Binding Assay of NAMPT; conditions: 6.8 nM NAMPT, 200 nM probe, equilibrated 3 hours, absence of substrates
Outline: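 Probe displacement measured by TR-FRET (Ex 337 nm; 520/495 nm ratio) after 3 h room-temperature equilibration of compound with 6.8 nM His-tagged human NAMPT, 1 nM Tb-anti-His antibody and 200 nM Oregon Green 488 nicotinamide-site probe, pH 7.5 HEPES buffer, 2% DMSO. Control-normalized data fit four-parameter logistic for IC50.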

NAMPT = NAMPT (Homo sapiens, UniProt P43490); test: Time-Resolved Fluorescence Resonance Energy Transfer (TR-FRET) Binding Assay of NAMPT with PRPP; conditions: 2 nM NAMPT, 2 nM probe, 200 uM PRPP and 2.5 mM ATP, equilibrated 16 hours
NAMPT, sequence (P43490 whole entry): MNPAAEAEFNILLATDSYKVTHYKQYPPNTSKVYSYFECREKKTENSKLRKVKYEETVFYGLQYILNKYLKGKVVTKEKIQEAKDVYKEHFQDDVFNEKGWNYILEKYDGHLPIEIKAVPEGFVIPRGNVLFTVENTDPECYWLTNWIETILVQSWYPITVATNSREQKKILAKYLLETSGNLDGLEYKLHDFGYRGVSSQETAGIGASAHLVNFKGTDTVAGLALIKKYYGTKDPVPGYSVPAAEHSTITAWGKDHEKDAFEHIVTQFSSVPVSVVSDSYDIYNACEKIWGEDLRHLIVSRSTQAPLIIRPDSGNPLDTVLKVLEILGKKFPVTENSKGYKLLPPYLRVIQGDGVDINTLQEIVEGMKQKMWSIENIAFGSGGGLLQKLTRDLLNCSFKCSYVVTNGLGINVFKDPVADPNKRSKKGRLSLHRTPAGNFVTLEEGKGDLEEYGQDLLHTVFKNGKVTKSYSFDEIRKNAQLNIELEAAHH
Outline: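 Binding measured by TR-FRET after a 16-hour equilibration meant to permit enzymatic compound modification. Substrates present at 200 uM PRPP and 2.5 mM ATP, with 2 nM enzyme, 2 nM probe, 1 nM Tb-anti-His antibody and 2% DMSO final.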

NAMPT (human, recombinant, C-terminally His-tagged), sequence (P43490 whole entry): as above

| SMILES | IC50 [1] [nM] | IC50 (NAMPT) [nM] |
| --- | --- | --- |
| O=C(Nc1ccc(OC2CCN(C(=O)C3CC3)CC2)cc1)C1CN(c2ccnnc2)C1 [Example 301, N-(4-{[1-(cyclopropylcarbonyl)piperidin-4-yl]oxy}phenyl)-1-(pyridazin-4-yl)azetidine-3-carboxamide] | 143 | 48.3 |
| Cc1ccc(C(=O)N2CCC(c3ccc(NC(=O)C4CN(c5cccnc5C)C4)cc3)CC2)s1 [Example 186, 1-(2-methylpyridin-3-yl)-N-(4-{1-[(5-methylthiophen-2-yl)carbonyl]piperidin-4-yl}phenyl)azetidine-3-carboxamide] | 98.9 | 118 |
| O=C(Nc1ccc(OC2CCN(C(=O)c3cccc(C(F)(F)F)c3)CC2)cc1)C1CN(c2cccnn2)C1 [Example 222, 1-(pyridazin-3-yl)-N-[4-({1-[3-(trifluoromethyl)benzoyl]piperidin-4-yl}oxy)phenyl]azetidine-3-carboxamide] | 215 | 1.03 |
| O=C(Nc1ccc(OC2CCN(C(=O)c3cccs3)CC2)cc1)C1CN(c2cccnn2)C1 [Example 249, 1-(pyridazin-3-yl)-N-(4-{[1-(thiophen-2-ylcarbonyl)piperidin-4-yl]oxy}phenyl)azetidine-3-carboxamide] | 59.9 | 0.6 |
| CC(=O)N[C@@H](CC(C)C)C(=O)N1CCC(c2ccc(NC(=O)C3CN(c4cccnn4)C3)cc2)CC1 [Example 385, N-{4-[1-(N-acetyl-L-leucyl)piperidin-4-yl]phenyl}-1-(pyridazin-3-yl)azetidine-3-carboxamide] | 55.1 | 1.24 |
| Cc1ncccc1N1CC(C(=O)Nc2ccc(C3CCN(C(=O)C4(C)CCCCC4)CC3)cc2)C1 [Example 177, N-(4-{1-[(1-methylcyclohexyl)carbonyl]piperidin-4-yl}phenyl)-1-(2-methylpyridin-3-yl)azetidine-3-carboxamide] | 60.4 | 91.3 |
| CC(C)C(=O)N1CC(Oc2ccc(NC(=O)C3CN(c4ccnnc4)C3)cc2)C1 [Example 264, N-(4-{[1-(2-methylpropanoyl)azetidin-3-yl]oxy}phenyl)-1-(pyridazin-4-yl)azetidine-3-carboxamide] | 52.8 | 13.4 |
| Cc1ncccc1N1CC(C(=O)Nc2ccc(C3CCN(C(=O)CN4CCN(C)CC4)CC3)cc2)C1 [Example 173, N-(4-{1-[(4-methylpiperazin-1-yl)acetyl]piperidin-4-yl}phenyl)-1-(2-methylpyridin-3-yl)azetidine-3-carboxamide] | 524 | 154 |
| O=C(Nc1ccc(OC2CCN(C(=O)c3cc(F)cc(F)c3)CC2)cc1)C1CN(c2ccnnc2)C1 [Example 299, N-(4-{[1-(3,5-difluorobenzoyl)piperidin-4-yl]oxy}phenyl)-1-(pyridazin-4-yl)azetidine-3-carboxamide] | 154 | 86.9 |
| CC(C)CN1CCC(Oc2ccc(NC(=O)C3CN(c4cccnc4)C3)cc2)CC1 [Example 76, N-(4-{[1-(2-methylpropyl)piperidin-4-yl]oxy}phenyl)-1-(pyridin-3-yl)azetidine-3-carboxamide] | 1920 | 0.44 |
| CCC(C)(C)CN1CCC(Oc2ccc(NC(=O)C3CN(c4cccnc4)C3)cc2)CC1 [Example 84, N-(4-{[1-(2,2-dimethylbutyl)piperidin-4-yl]oxy}phenyl)-1-(pyridin-3-yl)azetidine-3-carboxamide] | 6070 | 1.81 |
| CC(C)CCN1CCC(c2ccc(NC(=O)C3CN(c4cccnc4)C3)cc2)CC1 [Example 93, N-{4-[1-(3-methylbutyl)piperidin-4-yl]phenyl}-1-(pyridin-3-yl)azetidine-3-carboxamide] | 1220 | 1.25 |
| Cc1ncccc1N1CC(C(=O)Nc2ccc(C3CCN(C(=O)c4ccccc4)CC3)cc2)C1 [Example 149, N-[4-(1-benzoylpiperidin-4-yl)phenyl]-1-(2-methylpyridin-3-yl)azetidine-3-carboxamide] | 20.7 | 54.3 |
| CC[C@H](C)C(=O)N1CC(Oc2ccc(NC(=O)C3CN(c4ccnnc4)C3)cc2)C1 [Example 265, N-[4-({1-[(2S)-2-methylbutanoyl]azetidin-3-yl}oxy)phenyl]-1-(pyridazin-4-yl)azetidine-3-carboxamide] | 29.5 | 21.8 |
| COCC(=O)N1CCC(c2ccc(NC(=O)C3CN(c4cccnc4C)C3)cc2)CC1 [Example 195, N-{4-[1-(methoxyacetyl)piperidin-4-yl]phenyl}-1-(2-methylpyridin-3-yl)azetidine-3-carboxamide] | 305 | 94.1 |
| O=C(Nc1ccc(OC2CCN(C(=O)C3CCC(F)(F)CC3)CC2)cc1)C1CN(c2cccnn2)C1 [Example 216, N-[4-({1-[(4,4-difluorocyclohexyl)carbonyl]piperidin-4-yl}oxy)phenyl]-1-(pyridazin-3-yl)azetidine-3-carboxamide] | 228 | 1.41 |

| SMILES | IC50 [1] [nM] | IC50 (NAMPT) [nM] |
| --- | --- | --- |
| CC(C)(C)CC(=O)N1CCC(c2ccc(NC(=O)C3CN(c4ccnnc4)C3)cc2)CC1 [Example 140, N-{4-[1-(3,3-dimethylbutanoyl)piperidin-4-yl]phenyl}-1-(pyridazin-4-yl)azetidine-3-carboxamide] | 11 | 8.87 |
| O=C(Nc1ccc(OC2CCN(C(=O)CC3CCOCC3)CC2)cc1)C1CN(c2cccnc2C(F)(F)F)C1 [Example 3, N-(4-{[1-(tetrahydro-2H-pyran-4-ylacetyl)piperidin-4-yl]oxy}phenyl)-1-[2-(trifluoromethyl)pyridin-3-yl]azetidine-3-carboxamide] | 357 | 19.2 |
| O=C(Nc1ccc(C2CCN(C(=O)C3CCOCC3)CC2)cc1)C1CN(c2ccnnc2)C1 [Example 146, 1-(pyridazin-4-yl)-N-{4-[1-(tetrahydro-2H-pyran-4-ylcarbonyl)piperidin-4-yl]phenyl}azetidine-3-carboxamide] | 65.9 | 109 |
| CCCCC(=O)N1CCC(Oc2ccc(NC(=O)C3CN(c4cccnc4)C3)cc2)CC1 [Example 34, N-{4-[(1-pentanoylpiperidin-4-yl)oxy]phenyl}-1-(pyridin-3-yl)azetidine-3-carboxamide] | 71.4 | 0.886 |
| CC(C)C(C)C(=O)N1CCC(Oc2ccc(NC(=O)C3CN(c4cccnc4)C3)cc2)CC1 (centres unmarked) [Example 70, N-(4-{[1-(2,3-dimethylbutanoyl)piperidin-4-yl]oxy}phenyl)-1-(pyridin-3-yl)azetidine-3-carboxamide] | 35.7 | 0.742 |
| CC(C)C(=O)N1CCC(Oc2ccc(NC(=O)C3CN(c4cccnc4)C3)cc2)CC1 [Example 46, N-(4-{[1-(2-methylpropanoyl)piperidin-4-yl]oxy}phenyl)-1-(pyridin-3-yl)azetidine-3-carboxamide] | 93.4 | 1.02 |
| Cc1cccc(C(=O)N2CCC(c3ccc(NC(=O)C4CN(c5cccnn5)C4)cc3)CC2)c1C [Example 357, N-{4-[1-(2,3-dimethylbenzoyl)piperidin-4-yl]phenyl}-1-(pyridazin-3-yl)azetidine-3-carboxamide] | 17.7 | 1.14 |
| O=C(Nc1ccc(OC2CCN(C(=O)c3ccc(F)cc3F)CC2)cc1)C1CN(c2cccnn2)C1 [Example 229, N-(4-{[1-(2,4-difluorobenzoyl)piperidin-4-yl]oxy}phenyl)-1-(pyridazin-3-yl)azetidine-3-carboxamide] | 48 | 0.584 |
| Cc1ncccc1N1CC(C(=O)Nc2ccc(C3CCN(C(=O)[C@H]4CCC(=O)N4)CC3)cc2)C1 [Example 167, 1-(2-methylpyridin-3-yl)-N-{4-[1-(5-oxo-D-prolyl)piperidin-4-yl]phenyl}azetidine-3-carboxamide] | 3740 | 204 |
| CC(C)(C)CC(=O)N1CCC(c2ccc(NC(=O)C3CN(c4cccnn4)C3)cc2)CC1 [Example 327, N-{4-[1-(3,3-dimethylbutanoyl)piperidin-4-yl]phenyl}-1-(pyridazin-3-yl)azetidine-3-carboxamide] | 12.6 | 0.655 |
| O=C(Nc1ccc(OC2CCN(C(=O)Cc3cccc(C(F)(F)F)c3)CC2)cc1)C1CN(c2cccnn2)C1 [Example 240, 1-(pyridazin-3-yl)-N-{4-[(1-{[3-(trifluoromethyl)phenyl]acetyl}piperidin-4-yl)oxy]phenyl}azetidine-3-carboxamide] | 192 | 0.925 |
| O=C(Nc1ccc(OC2CCN(C(=O)CC3CC3)CC2)cc1)C1CN(c2ccnnc2)C1 [Example 293, N-(4-{[1-(cyclopropylacetyl)piperidin-4-yl]oxy}phenyl)-1-(pyridazin-4-yl)azetidine-3-carboxamide] | 78.2 | 25.3 |
| Cc1ncccc1N1CC(C(=O)Nc2ccc(C3CCN(C(=O)CC(C)C)CC3)cc2)C1 [Example 197, N-{4-[1-(3-methylbutanoyl)piperidin-4-yl]phenyl}-1-(2-methylpyridin-3-yl)azetidine-3-carboxamide] | 126 | 79.8 |
| CC(C)C(=O)N1CCC(Oc2ccc(NC(=O)[C@H]3CCN(c4cccnc4)C3)cc2)CC1 [Example 12, (3S)-N-(4-{[1-(2-methylpropanoyl)piperidin-4-yl]oxy}phenyl)-1-(pyridin-3-yl)pyrrolidine-3-carboxamide] | 1410 | 2.05 |
| O=C(Nc1ccc(C2CCN(C(=O)c3cccc(Cl)c3)CC2)cc1)C1CN(c2cccnn2)C1 [Example 351, N-{4-[1-(3-chlorobenzoyl)piperidin-4-yl]phenyl}-1-(pyridazin-3-yl)azetidine-3-carboxamide] | 37.1 | 0.765 |
